In patent publication EP4635944A1, “2-AZABICYCLO[3.1.1]HEPTANE COMPOUND” (Daiichi Sankyo Company, Limited, priority 2022, dated 2024):

target: T1, human OX2R (Homo sapiens, UniProt O43614); experiment: Evaluation of OX2R agonist activity (intracellular calcium, CHO-K1 cells with forced expression of human OX2R); type: cell-based; details: CHO-K1 cells expressing human OX2R; 100% = 5 µM of the reference compound; read-out: hOX2R EC50
T1 construct: host or cells: CHO-K1 (Chinese Hamster Ovary K1)
T1 sequence (O43614 1-444): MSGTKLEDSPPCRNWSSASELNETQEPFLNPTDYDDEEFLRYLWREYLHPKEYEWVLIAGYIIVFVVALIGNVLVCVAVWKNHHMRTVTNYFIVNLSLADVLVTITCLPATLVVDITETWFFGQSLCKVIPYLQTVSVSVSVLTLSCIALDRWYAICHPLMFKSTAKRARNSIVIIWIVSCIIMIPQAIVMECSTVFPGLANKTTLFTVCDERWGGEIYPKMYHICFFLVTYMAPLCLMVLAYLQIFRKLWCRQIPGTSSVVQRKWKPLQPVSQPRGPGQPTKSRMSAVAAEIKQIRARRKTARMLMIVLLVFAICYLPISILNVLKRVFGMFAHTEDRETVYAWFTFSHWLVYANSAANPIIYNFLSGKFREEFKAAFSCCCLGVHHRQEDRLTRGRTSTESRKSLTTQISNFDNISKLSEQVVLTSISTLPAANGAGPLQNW
Description: Evaluation of OX2R agonist activity
Chinese Hamster Ovary K1 (CHO-K1) cells (GenScript) with forced expression of human OX2R were seeded onto a 384 well microplate (Corning) at 7500 cells/well and cultured for 24 hours. 20 µL of the loading buffer (25 mM HEPES containing 1.25 mM of Probenecid and 2.5 µg/mL of Fluo 4-AM at final concentration, Hank's balanced salt solution, 0.06% Pluronic F-127, Quenching buffer) in the Calcium Kit II (DOJINDO LABORATORIES) was added, and the microplate was allowed to stand for 30 minutes. A reference compound (Example435 of WO 2019/027058, N-[(2S,3S)-2-[[3-(3,5-difluorophenyl)-2-fluoro-phenyl]methyl]-1-(2-hydroxy-2-methylpropanoyl)pyrrolidin-3-yl]ethanesulfonamide) or the test compound was added in 10 µL, and changes in intracellular calcium ion concentration were measured using FDSS7000EX (Hamamatsu Photonics K.K.) as a fluorescence intensity ratio obtained upon dual wavelength excitation at 480 nm and 540 nm. Note that the reference compound or test compound was dissolved in DMSO (final concentration of DMSO was 0.5%) and diluted with an assay buffer (20 mM HEPES, Hank's balanced salt solution, 0.1% BSA). The difference between the maximum and minimum fluorescence values between 5 and 7 seconds after the addition of the test compound or reference compound was used as the indicator. The value of wells to which the assay buffer containing no test compound was added was defined as 0%, and the value of wells to which 5 µM of the reference compound was added was defined as 100%. The 50% effective concentration (EC50 value) was determined from the values obtained when various concentrations of the test compound were added. […]

Question: How did the EC50 turn out when `CS(=O)(=O)N[C@@H]1[C@H](Cc2cccc(-c3ccccc3)c2F)N(C(=O)[C@@H]2C[C@@H]2F)C2CC1(F)C2` [Example 66, N-[(3S,4R)-5-Fluoro-3-[(2-fluoro[biphenyl]-3-yl)methyl]-2-{[(1S,2S)-2-fluorocyclopropyl]carbonyl}-2-azabicyclo[3.1.1]heptan-4-yl]methanesulfonamide] was run?
Answer: The EC50 was 57 nM.

Question: Which EC50 does the source give for `CCOC(=O)N1C2CC(C2)[C@H](NS(C)(=O)=O)[C@@H]1Cc1cccc(-c2ccccc2)c1F` [Example 65, Ethyl (3S,4S)-3-[(2-fluoro[biphenyl]-3-yl)methyl]-4-[(methylsulfonyl)amino]-2-azabicyclo[3.1.1]heptane-2-carboxylate] here?
Answer: The EC50 was 393 nM.

Question: With `CS(=O)(=O)N[C@@H]1[C@H](Cc2cccc(-c3ccccc3)c2F)N(C(=O)[C@H]2CCO2)C2CC1(F)C2` [Example 70, N-{(3S,4R)-5-Fluoro-3-[(2-fluoro[biphenyl]-3-yl)methyl]-2-[(2R)-oxetan-2-ylcarbonyl]-2-azabicyclo[3.1.1]heptan-4-yl}methanesulfonamide] as the compound, how does the EC50 read?
Answer: Its EC50 is 26 nM.

Question: With `CC(C)(O)C(=O)N1C2CC(C2)C(NS(C)(=O)=O)C1Cc1cccc(-c2cc(F)cc(F)c2)c1` (single isomer, unassigned) [Example 13, N-{3-[(3',5'-Difluoro[biphenyl]-3-yl)methyl]-2-(2-hydroxy-2-methylpropanoyl)-2-azabicyclo[3.1.1]heptan-4-yl}methanesulfonamide] as the compound, how does the EC50 read?
Answer: Its EC50 is 1140 nM.

Question: Which EC50 does the source give for `CC(C)(O)C(=O)N1C2CC(C2)C(NS(=O)(=O)CF)C1Cc1cccc(-c2cc(F)cc(F)c2)c1F` (single isomer, unassigned) [Example 6, 1-Fluoro-N-{2-(2-hydroxy-2-methylpropanoyl)-3-[(2,3',5'-trifluoro[biphenyl]-3-yl)methyl]-2-azabicyclo[3.1.1]heptan-4-yl}methanesulfonamide] here?
Answer: The EC50 was 69 nM.

Question: Which EC50 does the source give for `C[C@@H](O)C(=O)N1C2CC(C2)[C@H](NS(C)(=O)=O)[C@@H]1Cc1cccc(-c2cccc(C(F)F)c2)c1F` [Example 24, N-{(3S,4S)-3-{[3'-(Difluoromethyl)-2-fluoro[biphenyl]-3-yl]methyl}-2-[(2R)-2-hydroxypropanoyl]-2-azabicyclo[3.1.1]heptan-4-yl}methanesulfonamide] here?
Answer: The EC50 was 15 nM.

Question: For `CCS(=O)(=O)NC1C2CC(C2)N(C(=O)[C@@H](C)O)C1Cc1cc(F)cc(-c2ccccc2)c1F` (single isomer, unassigned) [Example 81], which EC50 is on record?
Answer: Its EC50 is 43 nM.

Question: `CS(=O)(=O)N[C@H]1C2CC(C2)N(C(=O)[C@H](O)CF)[C@H]1Cc1cccc(-c2ccccc2)c1F` [Example 75, N-{(3S,4S)-3-[(2-Fluoro[biphenyl]-3-yl)methyl]-2-[(2S)-3-fluoro-2-hydroxypropanoyl]-2-azabicyclo[3.1.1]heptan-4-yl}methanesulfonamide] was tested. Which EC50 did it give?
Answer: Its EC50 is 78 nM.

Question: For `CO[C@H](C)C(=O)N1C2CC(C2)[C@H](NS(C)(=O)=O)[C@@H]1Cc1cccc(-c2cc(F)cc(F)c2)c1F` [Example 48, N-{(3S,4S)-2-[(2R)-2-Methoxypropanoyl]-3-[(2,3',5'-trifluoro[biphenyl]-3-yl)methyl]-2-azabicyclo[3.1.1]heptan-4-yl}methanesulfonamide], which EC50 is on record?
Answer: The EC50 was 33 nM.

Question: `C[C@@H](O)C(=O)N1C2CC(C2)[C@H](NS(C)(=O)=O)[C@@H]1Cc1cccc(-c2csc(Cl)c2)c1F` [Example 68, N-{(3S,4S)-3-[3-(5-Chlorothiophen-3-yl)-2-fluorobenzyl]-2-[(2R)-2-hydroxypropanoyl]-2-azabicyclo[3.1.1]heptan-4-yl}methanesulfonamide] was tested. Which EC50 did it give?
Answer: The EC50 was 37 nM.

Question: Which EC50 does the source give for `COc1cccc(-c2cccc(C[C@H]3[C@@H](NS(C)(=O)=O)C4CC(C4)N3C(=O)C(C)(C)O)c2F)c1` (stereo in doubt) [Example 14, N-[(3S,4S)-3-[(2-Fluoro-3'-methoxy[biphenyl]-3-yl)methyl]-2-(2-hydroxy-2-methylpropanoyl)-2-azabicyclo[3.1.1]heptan-4-yl]methanesulfonamide] here?
Answer: The EC50 was 298 nM.

Question: How did the EC50 turn out when `CS(=O)(=O)N[C@H]1C2CC(C2)N(C(=O)C2(C#N)CC2)[C@H]1Cc1cccc(-c2cc(F)cc(F)c2)c1F` [Example 33, N-{(3S,4S)-2-[(1-Cyanocyclopropyl)carbonyl]-3-[(2,3',5'-trifluoro[biphenyl]-3-yl)methyl]-2-azabicyclo[3.1.1]heptan-4-yl}methanesulfonamide] was run?
Answer: The EC50 was 326 nM.

Question: With `CCS(=O)(=O)NC1C2CC(C2)N(C(=O)N2CCC2)C1Cc1cccc(-c2cc(F)cc(F)c2)c1F` (single isomer, unassigned) [Example 9, N-{2-(Azetidin-1-ylcarbonyl)-3-[(2,3',5'-trifluoro[biphenyl]-3-yl)methyl]-2-azabicyclo[3.1.1]heptan-4-yl}ethanesulfonamide] as the compound, how does the EC50 read?
Answer: Its EC50 is 89 nM.

Question: With `CS(=O)(=O)N[C@H]1C2CC(C2)N(C(=O)[C@H](O)C2CC2)[C@H]1Cc1cccc(-c2ccccc2)c1F` [Example 64, N-{(3S,4S)-2-[(2R)-2-Cyclopropyl-2-hydroxyacetyl]-3-[(2-fluoro[biphenyl]-3-yl)methyl]-2-azabicyclo[3.1.1]heptan-4-yl}methanesulfonamide] as the compound, how does the EC50 read?
Answer: Its EC50 is 41 nM.

Question: For `CS(=O)(=O)N[C@H]1C2CC(C2)N(C(=O)[C@H]2C[C@@H]2F)[C@H]1Cc1cccc(-c2cc(F)cc(F)c2)c1F` [Example 29, N-{(3S,4S)-2-{[(1R,2S)-2-Fluorocyclopropyl]carbonyl}-3-[(2,3',5'-trifluoro[biphenyl]-3-yl)methyl]-2-azabicyclo[3.1.1]heptan-4-yl}methanesulfonamide], which EC50 is on record?
Answer: Its EC50 is 253 nM.

Question: Which EC50 does the source give for `CS(=O)(=O)N[C@H]1C2CC(C2)N(C(=O)C2CC2)[C@H]1Cc1cccc(-c2cc(F)cc(F)c2)c1F` [Example 20, N-{(3S,4S)-2-(Cyclopropylcarbonyl)-3-[(2,3',5'-trifluoro[biphenyl]-3-yl)methyl]-2-azabicyclo[3.1.1]heptan-4-yl}methanesulfonamide] here?
Answer: Its EC50 is 32 nM.

Question: For `CCS(=O)(=O)NC1C2CC(C2)N(C(=O)N(C)C)C1Cc1cccc(-c2cc(F)cc(F)c2)c1F` (single isomer, unassigned) [Example 7, 4-[(Ethylsulfonyl)amino]-N,N-dimethyl-3-[(2,3',5'-trifluoro[biphenyl]-3-yl)methyl]-2-azabicyclo[3.1.1]heptane-2-carboxamide], which EC50 is on record?
Answer: Its EC50 is 213 nM.

Question: With `CC(C)(O)C(=O)N1C2CC(F)(C2)[C@H](NS(C)(=O)=O)[C@@H]1Cc1cccc(-c2ccccc2)c1F` [Example 50, N-[(3S,4R)-5-Fluoro-3-[(2-fluoro[biphenyl]-3-yl)methyl]-2-(2-hydroxy-2-methylpropanoyl)-2-azabicyclo[3.1.1]heptan-4-yl]methanesulfonamide] as the compound, how does the EC50 read?
Answer: The EC50 was 41 nM.

Question: For `CC(C)(O)C(=O)N1C2CC(F)(C2)[C@H](NS(C)(=O)=O)[C@@H]1Cc1cccc(-c2cccc(C(F)F)c2)c1F` [Example 49, N-[(3S,4R)-3-{[3'-(Difluoromethyl)-2-fluoro[biphenyl]-3-yl]methyl}-5-fluoro-2-(2-hydroxy-2-methylpropanoyl)-2-azabicyclo[3.1.1]heptan-4-yl]methanesulfonamide], which EC50 is on record?
Answer: Its EC50 is 20 nM.

Question: `C=CS(=O)(=O)NC1C(Cc2cc(F)cc(-c3ccccc3)c2F)N(C(=O)[C@@H](C)O)C2CC1(F)C2` (single isomer, unassigned) [Example 96] was tested. Which EC50 did it give?
Answer: Its EC50 is 9.9 nM.

Question: Which EC50 does the source give for `C[C@@H](O)C(=O)N1C2CC(C2)[C@H](NS(C)(=O)=O)[C@@H]1Cc1cccc(-c2cccc(C3CC3)n2)c1F` [Example 43, N-{(3S,4S)-3-[3-(6-Cyclopropylpyridin-2-yl)-2-fluorobenzyl]-2-[(2R)-2-hydroxypropanoyl]-2-azabicyclo[3.1.1]heptan-4-yl}methanesulfonamide] here?
Answer: Its EC50 is 49 nM.

Question: With `O=C([C@H]1C[C@H]1F)N1C2CC(C2)[C@H](NS(=O)(=O)C2CC2)[C@@H]1Cc1cccc(-c2ccccc2)c1F` [Example 45, N-[(3S,4S)-3-[(2-Fluoro[biphenyl]-3-yl)methyl]-2-{[(1R,2R)-2-fluorocyclopropyl]carbonyl}-2-azabicyclo[3.1.1]heptan-4-yl]cyclopropanesulfonamide] as the compound, how does the EC50 read?
Answer: The EC50 was 115 nM.

Question: For `CC[C@@H](O)C(=O)N1C2CC(C2)[C@H](NS(C)(=O)=O)[C@@H]1Cc1cccc(-c2cc(F)cc(F)c2)c1F` [Example 26, N-{(3S,4S)-2-[(2R)-2-Hydroxybutanoyl]-3-[(2,3',5'-trifluoro[biphenyl]-3-yl)methyl]-2-azabicyclo[3.1.1]heptan-4-yl}methanesulfonamide], which EC50 is on record?
Answer: Its EC50 is 35 nM.
